Measurements reported in PubChem BioAssay (NCI).
Values joined by “and” are separate entries in the source; they are usually repeats but may differ in a detail not shown here. Identical values can stand only once.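 All cell lines were grown in 96-well plates and treated with compound for 48 hours. At the GI50, growth is halved. TGI: total growth inhibition.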

What was measured:
Experiment in all cases: growth of human tumour cells (NCI), 48 h
MDA-MB-231 breast = system: MDA-MB-231 breast
NCI-H226 lung = system: NCI-H226 lung
HCT-15 colon = system: HCT-15 colon
K-562 leukemia = system: K-562 leukemia
SR leukemia = system: SR leukemia
NCI-H23 lung = system: NCI-H23 lung
SK-MEL-28 melanoma = system: SK-MEL-28 melanoma
T-47D breast = system: T-47D breast
RPMI-8226 leukemia = system: RPMI-8226 leukemia
NCI-H460 lung = system: NCI-H460 lung

Row | Structure (SMILES) | GI50 (MDA-MB-231 breast) [µM] | TGI (MDA-MB-231 breast) [µM] | GI50 (NCI-H226 lung) | TGI (NCI-H226 lung) [µM] | GI50 (HCT-15 colon) | TGI (HCT-15 colon) [µM] | GI50 (K-562 leukemia) | TGI (K-562 leukemia) [µM] | GI50 (SR leukemia) | GI50 (NCI-H23 lung) | TGI (NCI-H23 lung) | GI50 (SK-MEL-28 melanoma) | TGI (SK-MEL-28 melanoma) | GI50 (T-47D breast) [µM] | TGI (T-47D breast) [µM] | GI50 (RPMI-8226 leukemia) | GI50 (NCI-H460 lung) [µM] | TGI (NCI-H460 lung) [µM] | TGI (SR leukemia) [µM] | TGI (RPMI-8226 leukemia) [µM]
1 | CCC[CH2][Sn]([CH2]CCC)([O]C(=O)c1cccc(F)c1F)[O][Sn]([CH2]CCC)([CH2]CCC)[O]C(=O)c1cccc(F)c1F | 0.218 | 1.19 | 0.317 µM | 0.851 | 0.243 µM | 0.797 | 0.0371 µM | > 100 | 0.0771 µM | 0.0557 µM | 0.272 µM | 0.154 µM | 0.369 µM | 0.0189 | 0.186 | 0.0288 µM | 1.3 | 2.62 | – | –
2 | CN1CCN(Cc2ccc(NC(=O)c3[nH]ncc3Nc3ccnc4ccsc34)cc2)CC1 | 3.56 | 9.71 | 2.35 µM | 13.4 | 3.25 µM | 16.1 | 2.47 µM | > 100 | 1.92 µM | 2.03 µM | 6.64 µM | 5.23 µM | 18.4 µM | 4.95 | 50.6 | 2.95 µM | 3.15 | 12 | 7 | 7.18
3 | COc1cc(N)ccc1Nc1c2ccccc2nc2ccccc12 | 13.1 | 28.6 | 2.35 µM | 10.2 | 2.86 µM | 12 | 3.45 µM | > 28.8 | 2.11 µM | 15 µM | 45.2 µM | 16.3 µM | 34.9 µM | 15.5 | 47.8 | 5.27 µM | 1.38 | 7.72 | > 32.5 | > 29.9
4 | CC1=Cc2cc3[n-]c(cc4nc(cc5[n-]c(cc1n2)c(C)c5CCC(=O)O)C(CCC(=O)O)=C4C)cc3C.[Cu+2] | 22.6 | 50.3 | > 1 µM and 62 µM | > 87.2 | > 1 µM and 52.7 µM | > 86.7 | > 1 µM and 13.6 µM | > 60.6 | > 1 µM and 45.1 µM | > 1 µM and 24.9 µM | > 1 µM and 52.8 µM | > 1 µM and 4.4 µM | > 1 µM and 12.9 µM | 47.6 | > 100 | > 1 µM and 53.9 µM | > 100 | > 100 | > 75.7 | > 80
5 | C=C1C(=O)O[C@H]2[C@H]1CC/C(COC(=O)NCCc1c[nH]c3ccccc13)=C\CC[C@@]1(C)O[C@@H]21 | 1.48 | 3.3 | 1.8 µM | 3.39 | 1.23 µM | 2.81 | 0.503 µM | 10.4 | 1.07 µM | 2.28 µM | 6.81 µM | 1.38 µM | 3.11 µM | 1.7 | 4.41 | 0.826 µM | 3.82 | 16.3 | 7.05 | 4.26
6 | Cn1c(Cc2ccccc2)nc2cc3ccccc3cc21 | 16 | 37.5 | 22.7 µM | 56.8 | 26.8 µM | > 100 | 37.4 µM | > 100 | 18.1 µM | 43 µM | > 100 µM | 37.9 µM | > 100 µM | 44.9 | > 100 | 13.1 µM | 27.6 | > 100 | 48.1 | 34.3
7 | O=C(/C=C/c1ccc2c(c1)OCO2)c1ccccc1 | 24.4 | 75.6 | 23.4 µM | 78.5 | 16.6 µM | > 100 | 4.42 µM | > 100 | 2.56 µM | 17.4 µM | 38.6 µM | 19.5 µM | 41.4 µM | 15.5 | 39.5 | 4.84 µM | 13.9 | 37.5 | 13.9 | > 100
8 | COc1cc2c3c(n(CCCn4ccnc4)c(=O)c2cc1OC)-c1ccccc1C3=O | 0.254 | 5.19 | 0.05 µM | 0.983 | 0.159 µM | 2.37 | < 0.0155 µM | – | 0.0252 µM | < 0.0282 µM | 0.0695 µM | 1.59 µM | > 100 µM | 0.0357 | 0.509 | < 0.0171 µM | < 0.01 | 4.77 | 0.0583 | 0.355
9 | O=C(CSc1nc2sc3c(c2c(=O)n1-c1ccccc1)CCCCC3)N/N=C/c1ccc(F)cc1 | 1.04 | 3.27 | 2.09 µM | 4.84 | 3.77 µM | > 100 | 5.48 µM | > 100 | 0.357 µM | 3.29 µM | 13.9 µM | 3.24 µM | 13.1 µM | 2.34 | 24.6 | 29.5 µM | 1.12 | 2.98 | 6.17 | > 100
